Assay results taken from PubChem BioAssay (NCI).
“And” between values parts separate entries of the source, which are not always exact repeats. Equal entries are not always repeated.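 In this assay, cells in 96-well plates receive the compound at five concentrations for 48 hours. Endpoints are linearly interpolated between the surrounding concentrations. GI50 is the concentration that inhibits growth by half. TGI: total growth inhibition.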

Key:
Assay in all cases: growth of human tumour cells (NCI), 48 h
MCF7 breast = tested on: MCF7 breast
LXFL 529 NSCLC = tested on: LXFL 529 NSCLC
XF 498 CNS = tested on: XF 498 CNS
DLD-1 colon = tested on: DLD-1 colon
M19-MEL melanoma = tested on: M19-MEL melanoma
DMS 114 small cell lung = tested on: DMS 114 small cell lung
DMS 273 small cell lung = tested on: DMS 273 small cell lung
MDA-N = tested on: MDA-N
RXF-631 renal = tested on: RXF-631 renal

Structure (SMILES)	GI50 (MCF7 breast)	TGI (MCF7 breast)	TGI (LXFL 529 NSCLC)	TGI (DLD-1 colon)	TGI (M19-MEL melanoma)	TGI (DMS 114 small cell lung)	also measured
O=C(c1ccco1)c1c(C(F)(F)F)n([O-])c2cc(C(F)(F)F)ccc2[n+]1=O	0.445 µM	1.95 µM					
CCCCCCCC(=O)SCC/C=C/[C@@H]1CC(=O)NCc2nc(cs2)C2=N[C@@](C)(CS2)C(=O)N[C@@H](C(C)C)C(=O)N1	0.0198 µM	> 100 µM					
Cc1nc(N)nc(N)c1CCCc1ccccc1			> 100 µM	> 100 µM	> 100 µM	> 100 µM	TGI (XF 498 CNS): > 100 µM
Cc1ccc(S(=O)(=O)OC(COC(=O)c2ccccc2)C(OS(=O)(=O)c2ccc(C)cc2)C(OS(=O)(=O)c2ccc(C)cc2)C(COC(=O)c2ccccc2)OS(=O)(=O)c2ccc(C)cc2)cc1 (stereo unspecified)			> 100 µM		> 100 µM		TGI (DMS 273 small cell lung): > 100 µM
COc1cc(OC)c(OC)cc1/C=C/c1cnnc2ccccc12		> 10 µM					TGI (MDA-N): > 10 µM
Cc1ccc2nc3cc(C)c(=O)cc-3sc2c1			> 100 µM	> 100 µM	30.7 µM	> 100 µM	TGI (DMS 273 small cell lung): > 100 µM
Cc1ccc(S(=O)(=O)c2ccc(C)cc2[N+](=O)[O-])cc1			> 100 µM	> 100 µM	> 100 µM	73.3 µM	TGI (DMS 273 small cell lung): > 100 µM
CC(C(=O)c1ccccc1)C1(O)C(=O)Nc2ccc(Cl)cc21 (stereo unspecified)			> 100 µM	> 100 µM	31.6 µM	> 100 µM	TGI (XF 498 CNS): > 100 µM
COc1cc(NS(C)(=O)=O)ccc1NCc1c2ccccc2nc2ccccc12			> 100 µM	85.4 µM		58.2 µM	TGI (XF 498 CNS): 65.9 µM; TGI (RXF-631 renal): 71.3 µM; TGI (DMS 273 small cell lung): > 100 µM
CC([C@H]1CC=C2C3CCC4=C[C@@H](N(C)C)CC[C@]4(C)C3CC[C@@]21C)N(C)C (stereo partly specified)	1.98 µM	9.4 µM					
Cc1nc2ccccn2c1NC(=O)NNC(=S)Nc1ccc(F)cc1	> 100 µM	> 100 µM					
CC(=O)OC12c3ccccc3-c3ccccc3C1C(C(=O)O)C2C(=O)O (stereo unspecified)		> 10 µM					
CCOC(=O)C(Cc1ccccc1)NC(=O)c1[nH]cnc1/N=N/N(C)C (stereo unspecified)			> 100 µM	> 100 µM	> 100 µM	> 100 µM	TGI (DMS 273 small cell lung): > 100 µM
Cc1ccc2c(c1)C(=O)c1c-2c(OCCCN(C)C)nc2ccccc12	0.609 µM	2.03 µM					
O=C(Nc1ccc(F)cc1)Nc1ccc(Br)c(C(F)(F)F)c1	2.29 µM	10.3 µM					
Cc1[nH]c(N)nc(=S)c1CCC(=O)O		> 100 µM					TGI (MDA-N): > 100 µM
C/C(CC(=O)Nc1ccccc1C)=N/NS(=O)(=O)c1ccc(C)cc1			> 100 µM	> 100 µM	> 100 µM		TGI (XF 498 CNS): > 100 µM; TGI (RXF-631 renal): > 100 µM; TGI (DMS 273 small cell lung): > 100 µM
C=C1SC(=Nc2ccccc2Cl)N(C(=O)c2sc3ccccc3c2Cl)C12CCCCC2	3.95 µM	> 100 µM					
COc1ccc(NC(=O)c2sc3nc(C)c(C(=O)/C=C/c4cccc(OC)c4)cc3c2N)cc1	0.339 µM	> 50 µM					

Structure (SMILES)	GI50 (MCF7 breast)	TGI (MCF7 breast)	TGI (LXFL 529 NSCLC)	TGI (DLD-1 colon)	TGI (M19-MEL melanoma)	TGI (DMS 114 small cell lung)	also measured
COc1ccc2c(c1OC)C(C(Cl)(Cl)Cl)N1CCc3cc4c(cc3C1=C2)OCO4 (stereo unspecified)		> 100 µM					TGI (MDA-N): 41 µM
COC(=O)Nc1nc2ccc(C(=O)c3ccccc3)cc2[nH]1	0.318 µM and 0.204 µM	> 100 µM					
Cc1c(N)nc(C(CC(N)=O)NCC(N)C(N)=O)nc1C(=O)NC(C(=O)NC(C)C(O)C(C)C(=O)NC(C(=O)NCCc1nc(-c2nc(C(=O)NCCCNC(C)c3ccccc3)cs2)cs1)C(C)O)C(OC1OC(CO)C(O)C(O)C1OC1OC(CO)C(O)C(OC(N)=O)C1O)c1cnc[nH]1 (stereo unspecified)		> 100 µM	50 µM	50 µM	50 µM	8.75 µM	TGI (XF 498 CNS): 50 µM; GI50 (MDA-N): > 100 µM; TGI (MDA-N): > 100 µM; TGI (DMS 273 small cell lung): 4.95 µM
O=CN1N=C(c2cccc(Nc3ccnc4cc(Cl)ccc34)c2)CC1c1ccccc1 (stereo unspecified)	0.311 µM	> 33 µM					
COc1ccc(/C=C2\SC(=Nc3ccccc3)NC2=O)cc1	2.68 µM	42.1 µM					
O=S(=O)(N=NC=C1c2ccccc2N(O)c2ccccc21)c1ccc(Cl)cc1			> 100 µM	> 100 µM	> 100 µM	> 100 µM	TGI (RXF-631 renal): > 100 µM; TGI (DMS 273 small cell lung): > 100 µM
Cn1c(-c2ccccc2)c(/C=C/C2=[N+](C)c3ccccc3C2(C)C)c2ccccc21	0.817 µM	10.8 µM					
O=C(C#Cc1ccccc1)C1=Cc2ccccc2OC1		3.87 µM					
CN(C)CCCC1(c2ccc(F)cc2)OCc2cc(-c3cc4ccccc4s3)ccc21 (stereo unspecified)	1.75 µM	3.47 µM					
Cc1ccc(S(=O)(=O)C2=c3nc4ccccc4cc3=C3C(=O)c4ccccc4C(=O)C32)cc1 (stereo unspecified)			> 100 µM	> 100 µM	> 100 µM	> 100 µM	TGI (XF 498 CNS): > 100 µM; TGI (DMS 273 small cell lung): > 100 µM
Clc1ccc2nc(CI)c(CI)nc2c1	2.87 µM	9.53 µM					
Cc1c(Cl)cccc1NC(=O)/C=C/c1ccccc1		> 100 µM					TGI (MDA-N): > 100 µM
N#C/C(=N\Nc1ccccc1)C(=O)Nc1cc(-c2ccccc2)nn1-c1ccccc1	2.46 µM	> 100 µM					
C[C@]12CC[C@H]3[C@@H](CC4SC(N)=NC45C/C(=N/NC(N)=O)CC[C@]35C)[C@@H]1CCC2=O (stereo partly specified)	1.52 µM	3.14 µM					
C=CCC1(C(=O)OC(C)(C)C)C(OC)=C(C(=O)OC(C)(C)C)C2C1C(C(=O)OC(C)(C)C)=C(OC)C2(CC=C)C(=O)OC(C)(C)C (stereo unspecified)				> 100 µM	> 100 µM	> 100 µM	TGI (XF 498 CNS): > 100 µM
C[n+]1c2ccccc2nc2ccccc21	0.353 µM	1.59 µM					
C1CN(P2(N3CC3)=NP(N3CC3)(N3CC3)=NP(N3CC3)(N3CC3)=N2)CCO1 (stereo unspecified)			> 100 µM	> 100 µM	> 100 µM	> 100 µM	TGI (XF 498 CNS): > 100 µM; TGI (DMS 273 small cell lung): > 100 µM
CCOC(=O)C1=C(C)N(NC(N)=O)C2(N)N(NC(N)=O)C(C)=C(C(=O)OCC)C12C(=O)OCC (stereo unspecified)			> 100 µM	> 100 µM	> 100 µM	> 100 µM	TGI (XF 498 CNS): > 100 µM; TGI (DMS 273 small cell lung): > 100 µM
